Read-outs that look alike come from different tables or passages of the source.

The target in one experiment is T1, AKT1 E17K (Homo sapiens, UniProt P31749, E17K).
T1 construct: expressed in transfected cells; host or cells: HEK293
Briefly: Live cell AKT1 E17K target engagement by NanoBRET competitive probe displacement in HEK293 cells. The class given is binding. The conditions noted are these: 2 h at 37° C. The essentials: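 Transfect HEK293 overnight with kinase-NanoLuc fusion plasmid; add compound series and ~EC50 fluorescent ATP-competitive tracer; incubate 2 h, 37° C; add luciferase substrate and extracellular inhibitor; read 460/600 nm; IC50 by Hill fit of BRET ratio.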
(Bioluminescence resonance energy transfer reports proximity on the nanometre scale.)

The target of another experiment is T2, AKT2 (Homo sapiens, UniProt P31751).
T2 construct: expressed in transfected cells; host or cells: HEK293
The experiment is described as follows: Live cell AKT2 target engagement by NanoBRET competitive probe displacement in HEK293 cells. The experiment is classed as binding. Conditions: 2 h at 37° C., read-out: AKT2 IC50.

For experiment [1], the system named is LAPC4 prostate cancer cells, which express the AKT1 E17K allele. Briefly: Antiproliferative effects in LAPC4 cells (CellTiter Glo, 72 h). The experiment is classed as cell-based. Conditions: Homo sapiens, LAPC4, 72 h, read-out: LAPC4 proliferation IC50. The method, boiled down: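 Seed 1,000 cells/well in IMDM/12% FBS/1% P/S; add compound dilutions (DMSO); incubate 72 h; read intracellular ATP with CellTiter Glo; fit luminescence to log(inhibitor)-response Hill curve for IC50.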

In the next experiment the target is T3, AKT1 WT (Homo sapiens, UniProt P31749).
T3 construct: expressed in transfected cells; host or cells: HEK293
The experiment is described as follows: Live cell AKT1 WT target engagement by NanoBRET competitive probe displacement in HEK293 cells. The experiment is classed as binding. Conditions: 2 h at 37° C., read-out: AKT1 WT IC50.

Where [2] appears, read: NanoBRET competitive probe displacement, live HEK293 cells.
The mark [3] stands for this setting: NanoBRET live cell target engagement, HEK293 cells.

T3 sequence (P31749 whole entry): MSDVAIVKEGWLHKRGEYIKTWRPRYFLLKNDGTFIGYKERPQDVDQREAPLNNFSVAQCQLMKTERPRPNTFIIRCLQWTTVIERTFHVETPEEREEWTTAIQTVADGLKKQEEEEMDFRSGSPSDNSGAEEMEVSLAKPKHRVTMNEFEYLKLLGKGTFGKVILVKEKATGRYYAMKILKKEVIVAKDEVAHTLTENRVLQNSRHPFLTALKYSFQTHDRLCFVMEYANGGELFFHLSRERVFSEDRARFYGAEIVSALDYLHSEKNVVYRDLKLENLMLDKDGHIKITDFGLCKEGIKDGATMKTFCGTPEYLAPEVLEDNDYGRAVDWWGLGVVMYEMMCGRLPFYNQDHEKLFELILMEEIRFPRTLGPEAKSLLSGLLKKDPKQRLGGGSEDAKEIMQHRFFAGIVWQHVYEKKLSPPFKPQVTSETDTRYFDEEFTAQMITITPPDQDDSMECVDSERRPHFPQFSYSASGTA
T2 sequence (P31751 whole entry): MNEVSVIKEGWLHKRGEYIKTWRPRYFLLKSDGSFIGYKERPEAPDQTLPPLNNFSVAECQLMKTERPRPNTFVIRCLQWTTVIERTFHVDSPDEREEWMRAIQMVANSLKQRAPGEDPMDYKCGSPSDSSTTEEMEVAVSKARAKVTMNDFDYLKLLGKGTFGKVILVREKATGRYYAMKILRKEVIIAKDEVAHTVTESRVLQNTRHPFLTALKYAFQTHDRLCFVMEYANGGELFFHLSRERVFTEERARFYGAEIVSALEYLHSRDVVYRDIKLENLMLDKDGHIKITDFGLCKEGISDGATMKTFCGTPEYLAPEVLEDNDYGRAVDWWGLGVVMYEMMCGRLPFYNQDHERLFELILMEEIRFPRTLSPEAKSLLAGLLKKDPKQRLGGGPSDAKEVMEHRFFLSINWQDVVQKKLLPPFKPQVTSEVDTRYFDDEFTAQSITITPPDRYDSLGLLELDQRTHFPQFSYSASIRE
T1 sequence (P31749 whole entry E17K): as the sequence (P31749 whole entry) above, with E17K counted along it

Regarding `Nc1ncccc1-c1nc2ccc(-n3ccc(OCCN4CCOCC4)n3)nc2n1-c1ccc2c(c1)CC[C@@H]2NC1CCN(C(=O)C2CC2)CC1` [Compound 505], the IC50 on AKT1 E17K (setting [2]) was found to be 485 nM; on AKT2 (setting [2]) it was 547 nM; in experiment [1], 4360 nM; on AKT1 WT (setting [2]), 17.6 nM.
Regarding `COc1cc(C(=O)N[C@H]2CCc3cc(-n4c(-c5cccnc5N)nc5ccc(-n6cccn6)nc54)ccc32)cc(F)c1F` [Compound 3, (S)—N-(5-(2-(2-aminopyridin-3-yl)-5-(1H-pyrazol-1-yl)-3H-imidazo[4,5-b]pyridin-3-yl)-2,3-dihydro-1H-inden-1-yl)-3,4-difluoro-5-methoxybenzamide], the IC50 on AKT1 E17K (setting [3]) is 120 nM; at AKT2 (setting [3]), 132 nM; in experiment [1], 1710 nM; at AKT1 WT (setting [3]) it was 7.21 nM.
Taken in the same sequence, the figures for `CN(C)c1cc(C(=O)N[C@H]2CCc3cc(-n4c(-c5cccnc5N)nc5ccc(-n6cccn6)nc54)ccc32)ccn1` [Compound 63, (S)—N-(5-(2-(2-aminopyridin-3-yl)-5-(1H-pyrazol-1-yl)-3H-imidazo[4,5-b]pyridin-3-yl)-2,3-dihydro-1H-inden-1-yl)-2-(dimethylamino)isonicotinamide] were 73.9 nM, 12.6 nM, 970 nM and 2.57 nM.
Taken in the same sequence, the figures for `Cn1ccc2c(C(=O)N[C@H]3CCc4cc(-n5c(-c6cccnc6N)nc6ccc(-n7cccn7)nc65)ccc43)[nH]cc2c1=O` [Compound 6, (S)—N-(5-(2-(2-aminopyridin-3-yl)-5-(1H-pyrazol-1-yl)-3H-imidazo[4,5-b]pyridin-3-yl)-2,3-dihydro-1H-inden-1-yl)-5-methyl-4-oxo-4,5-dihydro-2H-pyrrolo[3,4-c]pyridine-1-carboxamide] were 179 nM, 307 nM, 1660 nM and 10.8 nM.
Taken in the same sequence, the figures for `Cn1nc(C(=O)N[C@H]2CCc3cc(-n4c(-c5cccnc5N)nc5ccc(-n6cccn6)nc54)ccc32)c2c1OCC2` [Compound 390] were 31.8 nM, 105 nM, over 10000 nM and 15.8 nM.
As to `COc1cc(C(=O)N[C@H]2CCc3cc(-n4c(-c5cccnc5N)nc5ccc(-n6cccn6)nc54)ccc32)cc(OC)n1` [Compound 283], the IC50 on AKT1 E17K (setting [3]) turned out to be 10.6 nM; at AKT2 (setting [3]), 2.91 nM; in experiment [1], 264 nM; on AKT1 WT (setting [3]) it was 2.75 nM.
Taken in the same sequence, the figures for `Nc1ncccc1-c1nc2ccc(-n3cccn3)nc2n1-c1ccc2c(c1)CC[C@@H]2NC(=O)c1ccc(O)c(O)c1` [Compound 323] were 112 nM, 594 nM, 713 nM and 45.6 nM.
Take `Nc1ncccc1-c1nc2ccc(-n3cccn3)nc2n1-c1ccc2c(c1)CC[C@@H]2NC(=O)c1ccnc2c1CCCO2` [Compound 361]: the IC50 on AKT1 E17K (setting [3]) is 486 nM; on AKT2 (setting [3]), 411 nM; in experiment [1], 4290 nM; on AKT1 WT (setting [3]), 24.7 nM.
In the case of `Nc1ncccc1-c1nc2ccc(-n3cccn3)nc2n1-c1ccc2c(c1)CC[C@@H]2NC(=O)c1ccnnc1` [Compound 33, (S)—N-(5-(2-(2-aminopyridin-3-yl)-5-(1H-pyrazol-1-yl)-3H-imidazo[4,5-b]pyridin-3-yl)-2,3-dihydro-1H-inden-1-yl)pyridazine-4-carboxamide], the IC50 was over 1000 nM on AKT1 E17K (setting [3]), 321 nM on AKT2 (setting [3]), 3750 nM in experiment [1] and 19.6 nM at AKT1 WT (setting [3]).
For the molecule `Cn1ncc2cc(C(=O)N[C@H]3CCc4cc(-n5c(-c6cccnc6N)nc6ccc(-n7cccn7)nc65)ccc43)cnc21` [Compound 28, (S)—N-(5-(2-(2-aminopyridin-3-yl)-5-(1H-pyrazol-1-yl)-3H-imidazo[4,5-b]pyridin-3-yl)-2,3-dihydro-1H-inden-1-yl)-1-methyl-1H-pyrazolo[3,4-b]pyridine-5-carboxamide], the IC50 on AKT1 E17K (setting [3]) was found to be 12.1 nM; on AKT2 (setting [3]), 6.6 nM; in experiment [1], 225 nM; on AKT1 WT (setting [3]) it was 2.53 nM.
In the same order, the values of `Nc1ncccc1-c1nc2ccc(-n3nccn3)nc2n1-c1ccc2c(c1)CC[C@@H]2NC(=O)c1cccnc1` [Compound 58, (S)—N-(5-(2-(2-aminopyridin-3-yl)-5-(2H-1,2,3-triazol-2-yl)-3H-imidazo[4,5-b]pyridin-3-yl)-2,3-dihydro-1H-inden-1-yl)nicotinamide] are 157 nM, 2040 nM, 1900 nM and 30.7 nM.
As for `Nc1ncccc1-c1nc2ccc(-n3nccn3)nc2n1-c1ccc2c(c1)CC[C@@H]2NC(=O)c1cnc(C(F)F)cn1` [Compound 288], the IC50 was over 1000 nM on AKT1 E17K (setting [3]), over 10000 nM on AKT2 (setting [3]), 3680 nM in experiment [1] and 112 nM at AKT1 WT (setting [3]).
Turning to `Nc1ncccc1-c1nc2ccc(-n3cccn3)nc2n1-c1ccc2c(c1)CC[C@@H]2NC1CCN(S(=O)(=O)C2CC2)CC1` [Compound 393], the IC50 was over 1000 nM at AKT1 E17K (setting [2]), 3850 nM on AKT2 (setting [2]), over 10000 nM in experiment [1] and 125 nM on AKT1 WT (setting [2]).
Turning to `Nc1ncccc1-c1nc2ccc(-n3cccn3)nc2n1-c1ccc2c(c1)CC[C@@H]2n1cc(C2CC2)nn1` [Compound 221], the IC50 is 5.8 nM at AKT1 E17K (setting [3]), 449 nM at AKT2 (setting [3]), 1280 nM in experiment [1] and 10.9 nM on AKT1 WT (setting [3]).
Taken in the same sequence, the figures for `Nc1ncccc1-c1nc2ccc(-n3cccn3)nc2n1-c1ccc2c(c1)CC[C@@H]2n1cc(C2CC2(F)F)nn1` (stereo partly drawn) [Compound 362] were 138 nM, 1270 nM, 6960 nM and 36.1 nM.
Taken in the same sequence, the figures for `Nc1ncccc1-c1nc2ccc(-n3cccn3)nc2n1-c1ccc2c(c1)CC[C@@H]2NC1CCN(C(=O)C2CC2)CC1` [Compound 279] were over 1000 nM, 2400 nM, 9360 nM and 45.4 nM.
In the same order, the values of `Nc1ncccc1-c1nc2ccc(-n3cccn3)nc2n1-c1ccc2c(c1)CC[C@@H]2NC(=O)c1cncc(F)c1` [Compound 32, (S)—N-(5-(2-(2-aminopyridin-3-yl)-5-(1H-pyrazol-1-yl)-3H-imidazo[4,5-b]pyridin-3-yl)-2,3-dihydro-1H-inden-1-yl)-5-fluoronicotinamide] are 49 nM, 123 nM, 914 nM and 11 nM.
Take `COc1cc(C(=O)N[C@H]2CCc3cc(-n4c(-c5cccnc5N)nc5ccc(-n6nccn6)nc54)ccc32)ccn1` [Compound 321]: the IC50 came out at 127 nM at AKT1 E17K (setting [3]), 207 nM at AKT2 (setting [3]), 628 nM in experiment [1] and 6.84 nM at AKT1 WT (setting [3]).
In the same order, the values of `Nc1ncccc1-c1nc2ccc(-n3cccn3)nc2n1-c1ccc2c(c1)CC[C@@H]2NC(=O)c1ccnc(C(F)F)c1` [Compound 44, (S)—N-(5-(2-(2-aminopyridin-3-yl)-5-(1H-pyrazol-1-yl)-3H-imidazo[4,5-b]pyridin-3-yl)-2,3-dihydro-1H-inden-1-yl)-2-(difluoromethyl)isonicotinamide] are 74.1 nM, 141 nM, 1400 nM and 9.55 nM.
Take `CCC(=O)N1CCC(N[C@H]2CCc3cc(-n4c(-c5cccnc5N)nc5ccc(-n6cccn6)nc54)ccc32)CC1` [Compound 278]: the IC50 was over 1000 nM on AKT1 E17K (setting [3]), 3290 nM on AKT2 (setting [3]), over 10000 nM in experiment [1] and 93 nM on AKT1 WT (setting [3]).
In the same order, the values of `Cn1c(C(=O)N[C@H]2CCc3cc(-n4c(-c5cccnc5N)nc5ccc(-n6cccn6)nc54)ccc32)cc2ccccc2c1=O` [Compound 8, N—{(S)-5-[2-(2-amino-3-pyridyl)-5-(1-pyrazolyl)-3H-1,3,4-triazainden-3-yl]-1-indanyl}-2-methyl-1-oxo-1,2-dihydro-3-isoquinolinecarboxamide] are 10.8 nM, 55.8 nM, 523 nM and 2.97 nM.
In the same order, the values of `Nc1ncccc1-c1nc2ccc(-n3cccn3)nc2n1-c1ccc2c(c1)CC[C@@H]2NC(=O)Cc1ccccn1` [Compound 50, (S)—N-(5-(2-(2-aminopyridin-3-yl)-5-(1H-pyrazol-1-yl)-3H-imidazo[4,5-b]pyridin-3-yl)-2,3-dihydro-1H-inden-1-yl)-2-(pyridin-2-yl)acetamide] are over 1000 nM, 3740 nM, over 10000 nM and 279 nM.
Taken in the same sequence, the figures for `COc1nccc(C(=O)N[C@H]2CCc3cc(-n4c(-c5cccnc5N)nc5ccc(-n6cccn6)nc54)ccc32)c1OC` [Compound 355] were 734 nM, 74.4 nM, 2770 nM and 16.8 nM.
With `CN(C)C(=O)N1CCC(N[C@H]2CCc3cc(-n4c(-c5cccnc5N)nc5ccc(-n6cccn6)nc54)ccc32)CC1` [Compound 394], the IC50 at AKT1 E17K (setting [2]) is over 1000 nM; on AKT2 (setting [2]), 1480 nM; in experiment [1], over 10000 nM; at AKT1 WT (setting [2]) it was 101 nM.
